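How tested: cells in 96-well plates exposed to compound for 48 hours at five concentrations. Here, GI50 denotes the concentration required for 50% inhibition of growth.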 Calls of active or inactive are those of the source. Rule as the data show it: active = GI50 up to about 1.1 µM and inactive = higher. Some results are limits rather than exact numbers.

We go through 13 compounds from ChEMBL document CHEMBL1201862, “PubChem BioAssay data set” (2004).

Some test systems named below: BT-549; EKVX; HCT-116; HCT-15; M14; MOLT-4; Malme-3M; NCI-H226; NCI-H23; NCI/ADR-RES; SF-268; SF-539; SK-MEL-28; SK-MEL-5; SNB-75; SR; T47D; U-251; UACC-62; DLD-1.
Holding throughout (test): DTP human tumour cell line panel, 48 h

For `CSc1cccc(NC(=O)OC2CCCCCCCCCCC2)c1`, the GI50 in the test with BT-549 is 34.8 µM (inactive); with EKVX, 19.1 µM (inactive); with HCT-116, 15.1 µM (inactive); in the test with HCT-15, 28.8 µM; with M14, 22.3 µM (inactive); in the test on MOLT-4 it was 23.5 µM (inactive). Also, the GI50 in the test with Malme-3M was 24.8 µM (inactive); in the test on NCI-H226, 29.9 µM (inactive); in the test with NCI-H23, 24.4 µM (inactive); with NCI/ADR-RES, 21.4 µM (inactive); with SF-268 it was 29.8 µM (inactive); in the test with SF-539 it was 24.4 µM (inactive). The GI50 with SK-MEL-28 was 39.7 µM (inactive); with SK-MEL-5 it was 15.4 µM (inactive); in the test with SNB-75, 35.2 µM (inactive); in the test on SR, 26.9 µM (inactive); in the test with T47D it was 25.4 µM (inactive); with U-251 it was 18.8 µM (inactive). Also, the GI50 in the test with UACC-62 was 18.1 µM (inactive).

As for `Clc1ccc(-c2nnc3c4nnc(-c5ccc(Cl)cc5Cl)n4c4ccccc4n23)c(Cl)c1`, the GI50 was > 100 µM (inactive) with DLD-1; > 100 µM (inactive) in the test on EKVX; > 100 µM (inactive) in the test with HCT-116; above 100 µM in the test with HCT-15; > 100 µM (inactive) with M14; > 100 µM (inactive) in the test with MOLT-4. For the same compound, the GI50 with Malme-3M, in the test on NCI-H23, in the test on SF-268, in the test on SF-539, in the test on SK-MEL-28 and in the test on SK-MEL-5 was > 100 µM (inactive) throughout. The values for the GI50 in the test with SNB-75, with U-251 and in the test on UACC-62 were 26.5 µM (inactive), > 100 µM (inactive) and > 100 µM (inactive), respectively.

As for `COC(=O)/C(=N\NC(N)=O)C(C#N)c1ccccc1` (centres undefined), the GI50 was > 100 µM (inactive) in the test on DLD-1; > 100 µM (inactive) in the test with EKVX; > 100 µM (inactive) in the test with HCT-116; above 100 µM in the test on HCT-15; > 100 µM (inactive) in the test on M14; > 100 µM (inactive) with MOLT-4. In addition, the GI50 in the test with Malme-3M, with NCI-H226, with NCI-H23, with SF-268, in the test on SF-539 and in the test on SK-MEL-28 was > 100 µM (inactive) in each case. Moreover, the GI50 with SNB-75, in the test on U-251 and in the test on UACC-62 was > 100 µM (inactive) throughout.

In the case of `Cc1c2ccccc2cc2ccc3oc([N+](=O)[O-])cc3c12`, the GI50 in the test on DLD-1 is > 100 µM (inactive); in the test on EKVX it was 81.7 µM (inactive); with HCT-116 it was > 100 µM (inactive); in the test with HCT-15 it was above 100 µM; in the test with M14, 4.46 µM (inactive); with MOLT-4 it was > 100 µM (inactive). Moreover, the GI50 in the test with Malme-3M is > 100 µM (inactive); in the test on SF-268 it was > 100 µM (inactive); in the test with SF-539, > 100 µM (inactive); in the test on SK-MEL-5, 3.18 µM (inactive); with SNB-75, > 100 µM (inactive); in the test with U-251 it was > 100 µM (inactive). In the test with UACC-62, the GI50 was > 100 µM (inactive).

As to `C=C1C(=O)OC2C1C(OC(=O)/C(C)=C/C)CC(O)(CCl)C1C(O)C3OC3(C)C21O` (centres undefined), the GI50 was 17.4 µM (inactive) in the test with BT-549; > 50 µM (inactive) with EKVX; 10.8 µM (inactive) in the test with HCT-116; 17.1 µM with HCT-15; 23.3 µM (inactive) with M14; 13.6 µM (inactive) in the test with MOLT-4. Also, the GI50 with Malme-3M was 0.735 µM (active); in the test on NCI-H226 it was > 50 µM (inactive); in the test with NCI-H23 it was 34.5 µM (inactive); in the test with NCI/ADR-RES it was > 50 µM (inactive); in the test with SF-268, > 50 µM (inactive); in the test on SF-539, > 50 µM (inactive). The GI50 in the test with SK-MEL-28 was > 50 µM (inactive); in the test with SK-MEL-5 it was 28.2 µM (inactive); with SNB-75, > 50 µM (inactive); in the test with SR it was 17 µM (inactive); in the test on T47D, 23.8 µM (inactive); with U-251 it was > 50 µM (inactive). Moreover, the GI50 in the test with UACC-62 is 34.6 µM (inactive).

Turning to `CC(C)=CCC/C(C)=C/Cc1c(O)c(C)cc2c1[nH]c1cc(O)ccc12`, the GI50 with DLD-1 was > 25 µM (inactive); in the test on HCT-116, > 25 µM (inactive); with HCT-15, above 25 µM; in the test on M14, > 25 µM (inactive); in the test with MOLT-4, > 25 µM (inactive); with Malme-3M, > 25 µM (inactive). For the same compound, the GI50 in the test with NCI-H226, with SF-268, with SF-539, in the test with SK-MEL-28, in the test on SK-MEL-5 and in the test on SR was > 25 µM (inactive) throughout. Also, the GI50 in the test with U-251 and with UACC-62 was > 25 µM (inactive) each time.

For the compound `Nc1cc2c(c3ccccc13)C(CCl)CN2C(=O)c1cc2cc(NC(=O)Nc3ccc4[nH]c(C(=O)N5CC(CCl)c6c5cc(N)c5ccccc65)cc4c3)ccc2[nH]1` (centres undefined), the GI50 was 0.776 µM (active) with BT-549; 1.74 µM (inactive) with EKVX; 0.172 µM (active) in the test with HCT-116; 1.96 µM in the test with HCT-15; < 0.0303 µM (active) in the test on M14; < 0.01 µM (active) with MOLT-4. The GI50 is 0.412 µM (active) with Malme-3M; 0.275 µM (active) in the test with NCI-H226; 0.0239 µM (active) with NCI-H23; 1.31 µM (inactive) in the test with NCI/ADR-RES; 0.0514 µM (active) in the test with SF-268; 0.0194 µM (active) in the test with SF-539. Also, the GI50 with SK-MEL-28 is 0.659 µM (active); in the test with SK-MEL-5, 0.141 µM (active); with SNB-75 it was 0.0297 µM (active); with SR it was < 0.01 µM (active); in the test with T47D, < 0.0377 µM (active); with U-251 it was 0.0573 µM (active). The GI50 with UACC-62 is 0.0634 µM (active).

As to `O/N=C1\CCCCC1C(NO)c1ccccc1` (centres undefined), the GI50 with DLD-1 is > 100 µM (inactive); in the test with EKVX, > 100 µM (inactive); in the test on HCT-116, > 100 µM (inactive); with HCT-15, above 100 µM; in the test with M14, > 100 µM (inactive); in the test with MOLT-4, 69.3 µM (inactive). Moreover, the GI50 with Malme-3M is > 100 µM (inactive); with NCI-H23, > 100 µM (inactive); in the test on SF-268, 98.9 µM (inactive); in the test with SF-539 it was > 100 µM (inactive); in the test with SK-MEL-28, > 100 µM (inactive); in the test with SNB-75, 23.7 µM (inactive). The GI50 in the test on U-251 and in the test on UACC-62 was > 100 µM (inactive) throughout.

Take `CC1=C(C(=O)Nc2cc(F)c(F)cc2F)C(c2ccc([N+](=O)[O-])cc2)C(C(=O)Nc2cc(F)c(F)cc2F)=C(C)N1`: the GI50 was 30.5 µM (inactive) with DLD-1; 13.9 µM (inactive) with EKVX; 25.8 µM (inactive) with HCT-116; 54.2 µM (inactive) in the test with M14; 15 µM (inactive) with MOLT-4; 27.2 µM (inactive) with Malme-3M. For the same compound, the GI50 with NCI-H226 was 37.8 µM (inactive); in the test on NCI-H23, 31.8 µM (inactive); with SF-268 it was 22.2 µM (inactive); in the test on SF-539, 29.3 µM (inactive); with SK-MEL-28 it was 42.7 µM (inactive); with SK-MEL-5 it was 23.6 µM (inactive). For the same compound, the GI50 in the test on SNB-75 is 8.26 µM (inactive); with U-251, 30.7 µM (inactive).

On to `Cc1ccc(C(=O)CC2(O)C(=O)Nc3c(C)cc(Cl)cc32)cc1` (centres undefined), for which the GI50 in the test on DLD-1 is > 100 µM (inactive); with EKVX, > 100 µM (inactive); with HCT-15, above 100 µM; in the test with M14, > 100 µM (inactive); in the test on MOLT-4, 59.4 µM (inactive); with Malme-3M, > 100 µM (inactive). The GI50 with NCI-H226 was > 100 µM (inactive); in the test with NCI-H23, > 100 µM (inactive); in the test with SF-268, > 100 µM (inactive); in the test on SK-MEL-28, > 100 µM (inactive); with SK-MEL-5, > 100 µM (inactive); with SNB-75, 47.9 µM (inactive). Moreover, the GI50 with U-251 is > 100 µM (inactive).

For `c1ccc(CSc2nc3ccccc3nc2-c2cccs2)cc1`, the GI50 with DLD-1 is > 100 µM (inactive); in the test with EKVX it was > 100 µM (inactive); with HCT-116 it was > 100 µM (inactive); in the test on HCT-15 it was above 100 µM; in the test with M14, > 100 µM (inactive); in the test on MOLT-4 it was > 100 µM (inactive). In addition, the GI50 in the test with Malme-3M, with NCI-H226, in the test with NCI-H23, in the test with SF-268, in the test with SF-539 and in the test with SK-MEL-28 was > 100 µM (inactive) each time. In addition, the GI50 in the test on SK-MEL-5, in the test on SNB-75 and with U-251 was > 100 µM (inactive) each time.

Consider `Cc1ccccc1NC(=O)c1cc(-c2ccc([N+](=O)[O-])cc2)nc(S)n1`, for which the GI50 with DLD-1 was > 100 µM (inactive); with EKVX, > 100 µM (inactive); with HCT-116, > 100 µM (inactive); with HCT-15 it was above 100 µM; in the test on M14, > 100 µM (inactive); in the test on MOLT-4 it was > 100 µM (inactive). In addition, the GI50 in the test on Malme-3M, with NCI-H226, with NCI-H23, with SF-268, in the test on SF-539 and in the test on SK-MEL-28 was > 100 µM (inactive) in each case. Moreover, the GI50 with SK-MEL-5, in the test with U-251 and with UACC-62 was > 100 µM (inactive) throughout.

Take `COC(=O)[C@]1(C)CCC[C@]2(C)[C@@H](CCC(=O)C(C)C)[C@]3(C=O)O[C@@H]3C[C@H]21`: the GI50 with BT-549 is 24.7 µM (inactive); in the test on EKVX it was 44.8 µM (inactive); in the test with HCT-116, 21.7 µM (inactive); in the test with HCT-15, 26.6 µM; in the test with M14 it was 32.1 µM (inactive); with MOLT-4, 29.9 µM (inactive). Moreover, the GI50 in the test with Malme-3M is 53.1 µM (inactive); in the test with NCI-H226, 60.1 µM (inactive); in the test with NCI-H23 it was 28.1 µM (inactive); in the test on NCI/ADR-RES, 25.7 µM (inactive); in the test with SF-268, 44.1 µM (inactive); in the test on SF-539, 74.6 µM (inactive). Moreover, the GI50 in the test on SK-MEL-28 is > 100 µM (inactive); with SK-MEL-5 it was 31.1 µM (inactive); in the test with SNB-75, 17.1 µM (inactive); with SR, 30.7 µM (inactive); with T47D, 21.8 µM (inactive); in the test with U-251, 33.7 µM (inactive). The GI50 with UACC-62 was 50.2 µM (inactive).

One may read the GI50 as the concentration giving 50% growth inhibition.
